Values quoted from earlier work, collected in patent US9857359B2, “Methods for determining drug efficacy using cereblon-associated proteins” (CELGENE CORPORATION, priority 2012, dated 2018).

Molecular target: CRBN (Homo sapiens, UniProt Q96SW2)
Settings: in vitro; Ito et al., Science 2010; cited from earlier work

CRBN, sequence (Q96SW2 whole entry): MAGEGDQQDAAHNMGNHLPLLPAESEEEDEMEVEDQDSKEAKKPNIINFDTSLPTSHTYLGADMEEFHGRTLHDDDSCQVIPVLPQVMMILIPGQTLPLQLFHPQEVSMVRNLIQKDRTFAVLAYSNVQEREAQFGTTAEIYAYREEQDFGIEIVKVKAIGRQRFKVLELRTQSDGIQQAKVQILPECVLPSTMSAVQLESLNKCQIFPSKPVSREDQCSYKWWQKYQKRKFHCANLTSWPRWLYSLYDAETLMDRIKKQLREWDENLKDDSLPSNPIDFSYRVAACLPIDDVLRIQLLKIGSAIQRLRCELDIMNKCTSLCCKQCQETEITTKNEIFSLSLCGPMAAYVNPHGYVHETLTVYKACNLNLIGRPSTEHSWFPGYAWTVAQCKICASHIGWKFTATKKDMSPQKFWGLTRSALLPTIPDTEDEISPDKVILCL
CRBN, sequence (Q16531 whole entry partner): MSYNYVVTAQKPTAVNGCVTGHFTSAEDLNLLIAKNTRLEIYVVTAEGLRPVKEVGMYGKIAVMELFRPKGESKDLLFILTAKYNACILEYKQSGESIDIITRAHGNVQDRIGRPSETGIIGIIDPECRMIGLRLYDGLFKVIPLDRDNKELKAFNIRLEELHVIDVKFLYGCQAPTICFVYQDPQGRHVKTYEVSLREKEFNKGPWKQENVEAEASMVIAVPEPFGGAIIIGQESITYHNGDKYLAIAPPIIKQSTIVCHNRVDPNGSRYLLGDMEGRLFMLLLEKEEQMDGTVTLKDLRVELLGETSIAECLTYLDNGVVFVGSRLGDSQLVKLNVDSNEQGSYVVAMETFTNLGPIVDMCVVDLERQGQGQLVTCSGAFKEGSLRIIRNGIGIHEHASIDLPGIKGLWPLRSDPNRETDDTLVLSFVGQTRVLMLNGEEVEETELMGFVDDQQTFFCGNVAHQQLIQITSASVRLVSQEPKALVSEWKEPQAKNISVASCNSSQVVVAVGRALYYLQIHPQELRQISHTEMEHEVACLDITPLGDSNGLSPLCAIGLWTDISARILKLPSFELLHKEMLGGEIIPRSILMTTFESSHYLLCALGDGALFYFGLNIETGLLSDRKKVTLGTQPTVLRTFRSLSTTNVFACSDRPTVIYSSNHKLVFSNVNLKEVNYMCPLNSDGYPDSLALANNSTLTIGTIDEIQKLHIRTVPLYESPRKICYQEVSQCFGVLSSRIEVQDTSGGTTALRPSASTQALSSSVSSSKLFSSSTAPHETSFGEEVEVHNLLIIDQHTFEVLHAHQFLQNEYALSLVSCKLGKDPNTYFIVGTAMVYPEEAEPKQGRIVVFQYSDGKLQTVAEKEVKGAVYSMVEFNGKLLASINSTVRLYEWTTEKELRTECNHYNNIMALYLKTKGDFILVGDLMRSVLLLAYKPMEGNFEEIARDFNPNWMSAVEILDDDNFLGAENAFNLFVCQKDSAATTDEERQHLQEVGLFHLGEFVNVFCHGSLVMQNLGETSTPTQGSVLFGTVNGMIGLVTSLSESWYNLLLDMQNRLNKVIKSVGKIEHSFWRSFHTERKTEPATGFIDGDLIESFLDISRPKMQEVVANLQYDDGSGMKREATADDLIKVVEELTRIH
CRBN, sequence (Q13619 whole entry partner): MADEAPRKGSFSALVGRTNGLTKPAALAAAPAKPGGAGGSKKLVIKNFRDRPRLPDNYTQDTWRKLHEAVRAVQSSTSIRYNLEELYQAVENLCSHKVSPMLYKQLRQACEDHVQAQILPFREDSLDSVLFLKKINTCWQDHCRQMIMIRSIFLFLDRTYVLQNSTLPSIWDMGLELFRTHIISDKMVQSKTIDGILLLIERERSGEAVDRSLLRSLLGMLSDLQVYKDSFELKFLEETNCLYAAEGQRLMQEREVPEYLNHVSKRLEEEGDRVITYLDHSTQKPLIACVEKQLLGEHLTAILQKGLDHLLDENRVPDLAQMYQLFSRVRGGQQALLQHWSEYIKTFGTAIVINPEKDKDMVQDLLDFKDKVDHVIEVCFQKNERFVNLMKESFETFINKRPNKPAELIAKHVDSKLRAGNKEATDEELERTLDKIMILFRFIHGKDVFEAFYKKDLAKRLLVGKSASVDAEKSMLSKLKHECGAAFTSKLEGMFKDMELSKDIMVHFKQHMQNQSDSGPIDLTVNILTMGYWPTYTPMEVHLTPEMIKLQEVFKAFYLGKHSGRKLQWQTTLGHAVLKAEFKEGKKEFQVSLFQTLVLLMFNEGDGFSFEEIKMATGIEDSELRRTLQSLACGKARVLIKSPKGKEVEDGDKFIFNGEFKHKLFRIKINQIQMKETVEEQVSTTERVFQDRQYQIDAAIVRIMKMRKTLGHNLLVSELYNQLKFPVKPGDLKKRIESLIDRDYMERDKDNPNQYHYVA
CRBN, sequence (P62877 whole entry partner): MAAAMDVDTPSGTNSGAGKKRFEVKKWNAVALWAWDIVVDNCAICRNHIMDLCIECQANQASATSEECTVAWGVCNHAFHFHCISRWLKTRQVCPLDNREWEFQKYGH

O=C1CCC(N2C(=O)c3ccccc3C2=O)C(=O)N1 (stereo not shown) [thalidomide]
Auto-ubiquitination of CRBN: inhibit auto-ubiquitination of CRBN in vitro
